The source of these data is patent publication US10052297B2, “L-serine to be used as a drug for preventing and/or treating an inflammatory response of the skin” (PIERRE FABRE DERMO-COSMETIQUE, priority 2009, dated 2018).

Marks after values point to notes of the source that are not given here.

One experiment deals with T1, PAR2 (Homo sapiens, UniProt P55085).
T1 construct: HaCaT cell line keratinocyte models were used; endogenous in cells; host or cells: HaCaT keratinocytes
T1 sequence (P55085 26-397): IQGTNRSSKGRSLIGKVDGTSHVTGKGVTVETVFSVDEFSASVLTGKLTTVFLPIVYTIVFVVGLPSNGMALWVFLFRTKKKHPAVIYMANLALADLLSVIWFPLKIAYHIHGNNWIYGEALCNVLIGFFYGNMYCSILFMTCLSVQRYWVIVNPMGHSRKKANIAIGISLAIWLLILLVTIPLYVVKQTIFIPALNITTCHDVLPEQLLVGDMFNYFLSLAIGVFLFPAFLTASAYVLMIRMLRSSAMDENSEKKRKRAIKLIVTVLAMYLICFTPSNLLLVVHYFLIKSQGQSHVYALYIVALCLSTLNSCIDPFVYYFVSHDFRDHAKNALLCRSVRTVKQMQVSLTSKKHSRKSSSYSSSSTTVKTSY
As to the kind of experiment: Inhibition of trypsin-induced calcium flow (PAR2 activation) in HaCaT keratinocytes, Fluo-4/AM fluorescence. The settings on record: HaCaT cells, 10 nM trypsin stimulation; for inhibition at 3 µM / inhibition at 10 µM / inhibition at 30 µM / inhibition at 100 µM: 30 min incubation, read-out: Anti-PAR2 activity (percentage of inhibition); for Inhibition of PAR2 activation (result in words): 3-100 μM. The experiment is classed as cell-based. As for the experimental part:
HaCaT cell line keratinocyte models were used. L-serine and L-asparagine were purchased from EVONIK, L-arginine was purchased from AMINO and L-valine was purchased from AJINOMOTO.
A fluorescent probe (Fluo-4/AM at a concentration of 2 μM) is incorporated for 30 minutes in cells inoculated in 96-well plates and the active agent to be tested is incubated for 30 minutes. Only the deesterified form of the probe bound to calcium ions is excitable under 485 nm fluorescence and emits at 535 nm. The incubation buffer used is HBSS buffer supplemented with HEPES (20 mM) and with water-soluble probenecid (2.5 mM).
The cells were stimulated with 10 nM trypsin.
The reference molecule used is a STI molecule (soybean trypsin inhibitor) at a concentration of 1 μM.
L-serine and L-asparagine, solubilized at 50 mg/ml in distilled water (475.8 mM for L-serine and 378.4 mM for L-asparagine) were evaluated at concentrations of 3 μM, 10 μM, 30 μM and 100 μM.
L-arginine was solubilized at 100 mM in distilled water.
L-valine was solubilized at 200 mM in distilled water.
Calcium flow, which represents PAR2 activation, is measured by fluorescence, well by well in real time according to kinetics before and after the injection of trypsin. The percentage of inhibition of PAR2 activation corresponds to the percentage of inhibition of calcium flow.

The next experiment deals with IL-8 secretion. Kind of experiment: Inhibition of IL-8 secretion stimulated by trypsin in HaCaT keratinocytes (sandwich ELISA). The experiment is classed as cell-based. Conditions: Homo sapiens, 10 nM trypsin 24 h, n=2 experiments. As for the experimental part:
The test performed permitted to evaluate the anti-inflammatory activity of L-serine in terms of IL-8 secretion, stimulated by trypsin, on human keratinocytes from a cell line (HaCaT). Principle of the IL-8 Assay: Sandwich ELISA for Quantification of IL-8 Secreted in Culture Supernatants. IL-8 is captured by a monoclonal antibody bound to microplate wells. A second anti-IL-8 antibody is added. This antibody is biotinylated, which enabled the binding of streptavidin coupled with peroxidase activity. Adding the peroxidase substrate makes it possible to quantify the IL-8 concentration in each well by measuring absorbance at 450 nm. The HaCaT human keratinocyte cell line was used. A 96-well microplate for cell culture and a plate reader with injectors, Mithras LB940TM (Berthold Technologies®), were used. 10 nM trypsin was used as stimulation agent. Reagents from the Human CXCL8/IL8 DuoSet R&D System kit (ref. DY208(E)) were used. L-serine, solubilized at 475.8 mM in distilled water, was evaluated at concentrations of 3 μM, 10 μM, 30 μM, 100 μM, 300 μM and 1 mM. L-serine is incubated for 1 hour at 37° C. (HBSS buffer). The stimulation agent (trypsin […]) is then added and incubated for 24 hours at 37° C. The culture supernatants are recovered, centrifuged at +4° C. and then stored at -20° C. The IL-8 concentrations of the samples are calculated from a standard curve of the following equation: OD=(Bmax*[IL-8])/(Kd+[IL-8]) Next, the percentages of inhibition of IL-8 secretion are calculated according to the following formula: […]
For orientation: In an ELISA, binding on a coated surface is turned into a signal by an enzyme label.

For the molecule `N=C(N)NCCC[C@H](N)C(=O)O` [L-arginine, reference compound], at PAR2, the inhibition at 3 µM was -17%, the inhibition at 10 µM came out at 12%, the inhibition at 30 µM is -11% and the inhibition at 100 µM worked out at 1%. Moreover, the “Inhibition of PAR2 activation (result in words)” value (from here on “Inhibition of PAR2 activation”) at PAR2 is listed as “does not significantly inhibit PAR2 activation”.

Regarding `NC(=O)CC(N)C(=O)O` [L-asparagine, asparagine-amino-succinic acid], at PAR2, the inhibition at 3 µM was 23%, the inhibition at 10 µM was 23%, the inhibition at 30 µM was determined as 22% and the inhibition at 100 µM was found to be 31%. Further, the “Inhibition of PAR2 activation” value on PAR2 was “inhibit PAR2 activation, but not in a dose-dependent manner”.

For `NC(CO)C(=O)O` [L-serine, 2-amino-3-hydroxypropanoic acid], on PAR2, the inhibition at 3 µM was 3%, the inhibition at 10 µM worked out at 13%, the inhibition at 30 µM is 20% and the inhibition at 100 µM amounted to 33%. The “Inhibition of PAR2 activation” value at PAR2 was “inhibit PAR2 activation in a dose-dependent manner”. The inhibition at 10 µM in the experiment on IL-8 secretion (10 μM) was 47%. Moreover, in the experiment with IL-8 secretion (30 μM), the inhibition at 30 µM was 50%. The inhibition at 100 µM in the experiment on IL-8 secretion (100 μM) turned out to be 66%. In addition, the inhibition at 1000 µM in the experiment on IL-8 secretion (1 mM) came to 74%.

Consider `CC(C)[C@H](N)C(=O)O` [L-valine], for which, on PAR2, the inhibition at 3 µM came out at 6%, the inhibition at 10 µM was determined as 26%, the inhibition at 30 µM is 20% and the inhibition at 100 µM was 34%. Moreover, at PAR2, the “Inhibition of PAR2 activation” value was “inhibit PAR2 activation”.

B1: STI: reference molecule, STI molecule (soybean trypsin inhibitor) at a concentration of 1 μM (protein, UniProt P01070 25-205, looked up)
Trypsin inhibitor A: DFVLDNEGNPLENGGTYYILSDITAFGGIRAAPTGNERCPLTVVQSRNELDKGIGTIISSPYRIRFIAEGHPLSLKFDSFAVIMLCVGIPTEWSVVEDLPEGPAVKIGENKDAMDGWFRLERVSDDEFNNYKLVFCPQQAEDDKCGDIGISIDHDDGTRRLVVSKNKPLVVQFQKLDKESL
B1: the “Anti-PAR2 activity (percentage of inhibition)” value with PAR2 (reference at 1 μM) is 106-109%***.

The inhibition is the drop in the measured response relative to a control, in per cent.
